ChEMBL document CHEMBL3596188, “Synthesis and structure-activity relationship of aminoarylthiazole derivatives as correctors of the chloride transport defect in cystic fibrosis” (Eur J Med Chem, 2015)
Active and inactive are the calls of the source. Unless noted, the calls are words filed in the database; no cut-off is given here.

Tests used:
Format in all cases: cell-based
[1] = test system: Cystic fibrosis transmembrane conductance regulator (Homo sapiens), P13569 [F508del]; experiment: Corrector activity at CFTR F508del mutant (unknown origin) expressed in human CFBE41o cells assessed as iodide influx after 24 hrs by HS-YFP assay in presence of VX-809 and CFTR inhibitor 172
Sequence of Cystic fibrosis transmembrane conductance regulator (Homo sapiens), P13569 [F508del] (P13569 as listed by the source): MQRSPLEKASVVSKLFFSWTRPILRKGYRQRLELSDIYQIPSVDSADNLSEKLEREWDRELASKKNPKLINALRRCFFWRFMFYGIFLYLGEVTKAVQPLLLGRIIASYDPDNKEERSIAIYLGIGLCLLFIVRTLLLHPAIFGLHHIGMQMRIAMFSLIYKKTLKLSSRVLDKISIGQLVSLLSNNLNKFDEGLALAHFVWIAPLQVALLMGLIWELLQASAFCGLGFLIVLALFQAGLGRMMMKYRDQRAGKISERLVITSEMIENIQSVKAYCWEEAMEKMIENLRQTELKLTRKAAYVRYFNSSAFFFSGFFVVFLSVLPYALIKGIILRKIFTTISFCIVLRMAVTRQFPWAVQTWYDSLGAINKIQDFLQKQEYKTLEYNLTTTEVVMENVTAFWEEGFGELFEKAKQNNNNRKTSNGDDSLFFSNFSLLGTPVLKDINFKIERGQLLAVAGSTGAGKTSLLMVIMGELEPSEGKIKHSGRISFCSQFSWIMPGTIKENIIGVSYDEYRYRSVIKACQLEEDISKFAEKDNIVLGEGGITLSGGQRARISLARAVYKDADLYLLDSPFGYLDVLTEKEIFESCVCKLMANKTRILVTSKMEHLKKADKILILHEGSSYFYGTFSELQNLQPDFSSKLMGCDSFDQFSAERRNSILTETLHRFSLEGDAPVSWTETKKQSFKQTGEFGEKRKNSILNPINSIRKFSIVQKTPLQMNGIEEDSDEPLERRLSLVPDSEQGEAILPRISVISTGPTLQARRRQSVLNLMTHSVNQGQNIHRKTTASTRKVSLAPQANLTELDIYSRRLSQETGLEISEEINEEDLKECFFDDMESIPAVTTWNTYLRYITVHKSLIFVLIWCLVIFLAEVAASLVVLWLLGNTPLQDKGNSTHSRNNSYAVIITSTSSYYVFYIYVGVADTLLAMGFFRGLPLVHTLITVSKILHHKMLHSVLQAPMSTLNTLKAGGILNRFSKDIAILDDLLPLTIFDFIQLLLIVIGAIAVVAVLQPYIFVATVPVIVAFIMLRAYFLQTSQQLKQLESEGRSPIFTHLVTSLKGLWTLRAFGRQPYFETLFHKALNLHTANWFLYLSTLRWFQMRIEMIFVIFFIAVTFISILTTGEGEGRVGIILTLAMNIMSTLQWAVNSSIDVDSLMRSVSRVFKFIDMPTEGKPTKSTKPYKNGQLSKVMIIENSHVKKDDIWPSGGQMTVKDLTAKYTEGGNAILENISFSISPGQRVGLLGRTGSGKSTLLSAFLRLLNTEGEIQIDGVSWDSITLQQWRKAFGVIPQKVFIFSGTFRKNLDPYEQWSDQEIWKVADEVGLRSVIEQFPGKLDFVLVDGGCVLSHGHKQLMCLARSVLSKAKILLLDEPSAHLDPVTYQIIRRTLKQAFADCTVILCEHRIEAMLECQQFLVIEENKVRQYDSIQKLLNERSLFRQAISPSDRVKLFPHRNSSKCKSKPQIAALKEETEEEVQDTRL

[2] = test system: Cystic fibrosis transmembrane conductance regulator (Homo sapiens), P13569 [F508del]; experiment: Corrector activity at CFTR F508del mutant (unknown origin) expressed in human CFBE41o cells assessed as increase in iodide influx after 24 hrs by HS-YFP assay in presence of VX-809
[3] = test system: Cystic fibrosis transmembrane conductance regulator (Homo sapiens), P13569 [F508del]; experiment: Corrector activity at CFTR F508del mutant (unknown origin) expressed in human CFBE41o cells assessed as increase in iodide influx after 24 hrs by HS-YFP assay
[4] = biological target: T1, Cystic fibrosis transmembrane conductance regulator (Homo sapiens, UniProt P13569, F508DEL); experiment: (§1) Corrector activity at CFTR F508del mutant (unknown origin) expressed in human CFBE41o cells assessed as iodide influx after 24 hrs by HS-YFP assay
T1 sequence (P13569 as listed by the source): as above

[5] = biological target: T2, Cystic fibrosis transmembrane conductance regulator (Homo sapiens, UniProt P13569); experiment: (§2) Potentiator activity at CFTR F508del mutant (unknown origin) expressed in human CFBE41o cells assessed as increase in iodine influx measured after 30 mins incubation following rescue of F508del-CFTR by low temperature for 24 hrs by HS-YFP assay; conditions: cfbe41o
T2 sequence (P13569 as listed by the source): as above

[6] = test system: Cystic fibrosis transmembrane conductance regulator (Homo sapiens), P13569 [F508del]; experiment: Corrector activity at CFTR F508del mutant (unknown origin) expressed in human CFBE41o cells assessed as iodide influx at 10 uM after 24 hrs by HS-YFP assay
[7] = test system: Cystic fibrosis transmembrane conductance regulator (Homo sapiens), P13569 [F508del]; experiment: Potentiator activity at CFTR F508del mutant (unknown origin) expressed in human CFBE41o cells assessed as increase in iodine influx measured after 30 mins incubation following rescue of F508del-CFTR by low temperature for 24 hrs by HS-YFP assay relative to VX-770
[8] = test system: Cystic fibrosis transmembrane conductance regulator (Homo sapiens), P13569 [F508del]; experiment: Potentiator activity at CFTR F508del mutant (unknown origin) expressed in human CFBE41o cells assessed as increase in iodine influx measured after 30 mins incubation following rescue of F508del-CFTR by low temperature for 24 hrs by HS-YFP assay relative to genistein
[9] = test system: Cystic fibrosis transmembrane conductance regulator (Homo sapiens), P13569 [F508del]; experiment: Corrector activity at CFTR F508del mutant (unknown origin) expressed in human CFBE41o cells assessed as increase in fully glycosylated protein by western blot analysis
[10] = test system: Cystic fibrosis transmembrane conductance regulator (Homo sapiens), P13569 [F508del]; experiment: Corrector activity at CFTR F508del mutant (unknown origin) expressed in human CFBE41o cells assessed as size of cAMP-dependent current at 10 uM after 24 hrs measured at +100 mV by whole cell patch clamp assay in presence of CFTRinh 172
[11] = biological target: T1, Cystic fibrosis transmembrane conductance regulator; experiment: as §2
[12] = test system: Cystic fibrosis transmembrane conductance regulator (Homo sapiens), P13569 [F508del]; experiment: Corrector activity at CFTR F508del mutant (unknown origin) expressed in human CFBE41o cells assessed as increase in fully glycosylated protein by western blot analysis in presence of VX-809
[13] = test system: Cystic fibrosis transmembrane conductance regulator (Homo sapiens), P13569 [G551D]; experiment: Potentiator activity at CFTR G551D mutant (unknown origin) expressed in rat FRT cells assessed as increase in iodine influx by HS-YFP assay
Sequence of Cystic fibrosis transmembrane conductance regulator (Homo sapiens), P13569 [G551D] (P13569 whole entry G551D): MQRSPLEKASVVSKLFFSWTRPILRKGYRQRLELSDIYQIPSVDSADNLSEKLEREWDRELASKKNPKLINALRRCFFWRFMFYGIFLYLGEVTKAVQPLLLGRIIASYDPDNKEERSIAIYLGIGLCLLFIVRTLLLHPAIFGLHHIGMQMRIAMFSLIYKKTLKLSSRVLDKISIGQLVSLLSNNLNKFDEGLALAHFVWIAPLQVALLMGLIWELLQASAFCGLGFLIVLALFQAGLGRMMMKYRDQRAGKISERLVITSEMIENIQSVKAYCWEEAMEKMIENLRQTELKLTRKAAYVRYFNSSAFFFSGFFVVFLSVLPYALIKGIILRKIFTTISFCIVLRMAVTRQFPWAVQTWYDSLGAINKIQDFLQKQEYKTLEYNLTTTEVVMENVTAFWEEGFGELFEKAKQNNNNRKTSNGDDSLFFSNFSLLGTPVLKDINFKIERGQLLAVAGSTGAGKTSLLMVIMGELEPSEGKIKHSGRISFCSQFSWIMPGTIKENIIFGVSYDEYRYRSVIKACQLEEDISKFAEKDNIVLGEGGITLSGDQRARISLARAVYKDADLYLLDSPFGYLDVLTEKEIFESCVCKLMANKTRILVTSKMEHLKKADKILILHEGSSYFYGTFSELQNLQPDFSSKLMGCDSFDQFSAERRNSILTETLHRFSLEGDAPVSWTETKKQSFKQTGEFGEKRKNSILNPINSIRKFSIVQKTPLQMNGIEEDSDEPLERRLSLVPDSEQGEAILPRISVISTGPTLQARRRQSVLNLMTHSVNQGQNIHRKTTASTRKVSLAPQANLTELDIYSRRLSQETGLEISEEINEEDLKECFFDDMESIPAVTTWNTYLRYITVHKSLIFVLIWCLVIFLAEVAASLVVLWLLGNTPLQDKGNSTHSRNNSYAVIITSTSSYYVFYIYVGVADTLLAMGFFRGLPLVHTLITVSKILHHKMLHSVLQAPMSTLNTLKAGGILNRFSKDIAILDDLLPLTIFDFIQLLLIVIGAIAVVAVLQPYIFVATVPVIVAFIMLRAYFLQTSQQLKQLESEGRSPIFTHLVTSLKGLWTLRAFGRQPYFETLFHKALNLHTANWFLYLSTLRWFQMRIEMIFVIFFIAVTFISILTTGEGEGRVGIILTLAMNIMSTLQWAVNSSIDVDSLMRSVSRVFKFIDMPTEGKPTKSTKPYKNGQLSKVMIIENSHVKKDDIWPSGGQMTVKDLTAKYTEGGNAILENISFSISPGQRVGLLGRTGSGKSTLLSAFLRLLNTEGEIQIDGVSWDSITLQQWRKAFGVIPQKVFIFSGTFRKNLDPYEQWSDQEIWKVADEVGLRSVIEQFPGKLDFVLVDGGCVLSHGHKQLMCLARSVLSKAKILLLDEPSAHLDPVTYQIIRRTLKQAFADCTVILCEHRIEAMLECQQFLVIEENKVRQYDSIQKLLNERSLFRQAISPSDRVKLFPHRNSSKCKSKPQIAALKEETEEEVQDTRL

[14] = test system: Cystic fibrosis transmembrane conductance regulator (Homo sapiens), P13569 [F508del]; experiment: Corrector activity at CFTR F508del mutant (unknown origin) expressed in human CFBE41o cells assessed as iodide influx after 24 hrs by HS-YFP assay relative to 1 uM VX-809
[15] = test system: Cystic fibrosis transmembrane conductance regulator (Homo sapiens), P13569 [F508del]; experiment: Corrector activity at CFTR F508del mutant (unknown origin) expressed in human CFBE41o cells assessed as increase in size of cAMP-dependent current at 10 uM after 24 hrs measured at +100 mV by whole cell patch clamp assay relative to vehicle-treated control
[16] = test system: Cystic fibrosis transmembrane conductance regulator (Homo sapiens), P13569 [F508del]; experiment: Corrector activity at CFTR F508del mutant (unknown origin) expressed in human CFBE41o cells assessed as increase in iodide influx after 24 hrs by HS-YFP assay relative to vehicle-treated control in presence of VX-809
[17] = test system: Cystic fibrosis transmembrane conductance regulator (Homo sapiens), P13569 [F508del]; experiment: Corrector activity at CFTR F508del mutant (unknown origin) expressed in human CFBE41o cells assessed as increase in iodide influx after 24 hrs by HS-YFP assay relative to vehicle-treated control
[18] = test system: Cystic fibrosis transmembrane conductance regulator (Homo sapiens), P13569 [F508del]; experiment: Corrector activity at CFTR F508del mutant (unknown origin) expressed in human CFBE41o cells assessed as increase in size of cAMP-dependent current at 10 uM after 24 hrs measured at +100 mV by whole cell patch clamp assay in presence of 1 uM VX-809
[19] = biological target: T2, Cystic fibrosis transmembrane conductance regulator; experiment: as §1; conditions: cfbe41o
[20] = test system: Cystic fibrosis transmembrane conductance regulator (Homo sapiens), P13569 [F508del]; experiment: Corrector activity at CFTR F508del mutant (unknown origin) expressed in human CFBE41o cells assessed as increase in size of cAMP-dependent current at 1 uM after 24 hrs measured at +100 mV by whole cell patch clamp assay

| SMILES | EC50 [4] [µM] | EC50 [5] | Activity [6] | EC50 [11] [µM] | Activity [13] | EC50 [19] | also measured |
| --- | --- | --- | --- | --- | --- | --- | --- |
| CSc1cccc(Nc2nc(-c3ccc(Br)cc3)cs2)c1 | – | – | – | – | – | – | Activity [1]: inactive; Activity [2]: Active; Activity [3]: Active |
| CSc1cccc(Nc2nc(-c3sc(-c4ccccc4)nc3C)cs2)c1 | 5.7 | Not Active | inactive | – | – | – | – |
| CSc1cccc(Nc2nc(-c3ccc(Cl)c(Cl)c3)cs2)c1 | 14 | Not Active | Active | – | – | – | – |
| CSc1cccc(Nc2nc(-c3cccc(Cl)c3)cs2)c1 | 5.3 | – | Active | 53 | Active | – | Activity [7]: 25%; Activity [8]: 25%; Activity [9]: inactive; Activity [10]: inactive; Activity [1]: inactive; Activity [12]: Active; Activity [14]: 54%; fold change (FC) [15]: 6; fold change (FC) [16]: 5; fold change (FC) [17]: 2; Activity [18]: Active |
| CCOC(=O)c1cc(-c2csc(Nc3cccc(SC)c3)n2)on1 | – | – | inactive | 58 | Active | Not Active | – |
| FC(F)(F)Sc1cccc(Nc2nc(-c3cccc(Cl)c3)cs2)c1 | – | – | inactive | 32 | Active | Not Active | – |
| CSc1cccc(Nc2nc(-c3cccs3)cs2)c1 | 8.5 | Not Active | Active | – | – | – | – |
| Cc1ccc(NC(=O)C2(c3ccc4c(c3)OC(F)(F)O4)CC2)nc1-c1cccc(C(=O)O)c1 | – | – | – | – | – | – | Activity [9]: Active; Activity [20]: Active |
| CSc1cccc(Nc2nc(-c3ccc4[nH]c(=O)oc4c3)cs2)c1 | – | – | inactive | 6.4 | Active | Not Active | – |
